Results taken from patent US5498710A, “Alkyl ether analogues of benzoporphyrin derivatives” (Health Research, Inc., priority 1994, dated 1996).
“Also recorded” adds a separate entry of the source.

Columns and labels:
[1] = test system: SMT-F tumor; assay: In vivo antitumor (photodynamic) activity, SMT-F tumors in DBA/2 mice; set-up: species or system DBA/2 Ha-DD mouse
Experimental: Tumor Response and Foot Response Experiments: For tumor response experiments (see Table 3), a 1mm^3 piece of SMT-F tumor from a donor DBA/2 Ha-DD mouse was implanted subcutaneously with a trocar into the axilla of a 5-7 week old female DBA/2 Ha-DD mouse. When the tumor had grown to about 4mm diameter, mice were injected intravenously (i.v.) with photosensitizers at various doses. At various time after injection, mice were restrained in Plexiglas® holders and each tumor was illuminated with 135 J/cm^2 light from a dye laser 171 (spectra physics). The light dose rate was 75 mW/cm^2 as measured with a PTR Optics […]. The percentage of short term control (non-palpable tumors) was recorded daily. For our study 6 mice/group were used.
In vivo Biological Activity: The in vivo photosensitizing ability of all the sensitizers was compared with that of commercial BPD in DBA/2 mice bearing subcutaneously implanted SMT-F tumors, a method previously described by Dougherty et al. All photosensitizers, including commercial BPD (mixture of 21 and 22) were first dissolved in a minimum quantity of Tween 80 and then diluted with 0.9% saline, to a final concentration of 1% Tween 80.
It can be seen from Table 3 that commercial BPD was quite effective at a dose of 5.0 mg/kg, 3 h post i.v. injection (4 out of six mice were tumor free at day 30). […] However, replacement of the vinyl with a 1-hexyloxyethyl group induced a remarkable difference in photosensitizing activity.

[2] = Electronic absorption, red absorption maximum; assay type: physicochemical; settings: maximum red absorption peak, Table 3
Experimental: M.p.s were measured on a Thomas/Bristoline microscopic hot stage apparatus and were uncorrected. Silica gel 60 (70-230 and 230-400 mesh, Merck) or neutral alumina (Merck; usually Brockmann Grade III, i. e., deactivated with 6% water) were used for column chromatography. Preparative thin layer chromatography was carried out on 20×20 cm glass plates coated with Merck G 254 silica gel (1 mm thick). Analytical thin layer chromatography (TLC) was performed using merck 60 F254 silica gel (precoated sheets, 0.2 mm thick). Reactions were monitored by TLC and spectrophotometry and were carried out under nitrogen and in the dark. ^1 HNMR spectra were obtained in deuteriochloroform solution at 300 MHz using a General Electric QE300 spectrometer; chemical shifts are expressed in ppm relative to chloroform (7.258 ppm). Elemental analyses were performed at the Midwest Microlab, Ltd., Indiana, USA. Unless stated otherwise, electronic absorption spectra were measured in dichloromethane solution using a Hewlett-Packard 8450A spectrophotometer. Mass spectra were obtained at the Mass Spectrometry Facility, University of California, San Francisco and at the Department of Biophysics, Roswell Park Cancer Institute, Buffalo.

[3] = test system: hind foot; assay: Foot-response experiments (skin phototoxicity); assay type: in vivo, DBA/2 HaDD mice
Experimental: Foot-response experiments were carried out on 5-7 week old female DBA/2 HaDD mice. Sensitizers were injected i.v. at the following doses: Photofrin® in normal saline, BPD (industrial preparation) in 1% Tween 80; n-hexyl ether derivative 40 in 1% Tween 80. After 1 or 5 days the mice were restrained without anesthesia in aluminum holders and one hind foot of each mouse was illuminated with light from a dye laser 171 (Spectra Physics). Illumination conditions (i.e., light dose, dose rate and wavelength) were as follows: Photofrin®, 5 mg/kg; BPD 5.0 mg/k (3.0 h), n-hexyl ether derivative 40 5.0 mg/kg (24 h) and 1.0 mg/kg (3 h). Light dose was measured with a Coherent 210 power meter and wavelength was measured with a PTR Optics monochromator. Sensitizer does for the foot response experiments corresponded to the lowest dose required to give maximum tumor control measured 7 days after treatment (see Table 3). Foot response was graded daily according to the scale in the legend to FIG. 13. Animals were euthanized immediately after peak foot scores were obtained.

[4] = test system: SMT-F tumor; assay: In vivo antitumor (photodynamic) activity, SMT-F tumors in DBA/2 mice; set-up: species or system DBA/2 Ha-DD mouse; remark: listed apart in the source

absorption maximum wavelength [2]: 676 nm
Compound: CCCCCCOC(C)C1=C(C)c2cc3[nH]c(cc4nc(cc5[nH]c(cc1n2)c(C)c5CCC(=O)OC)C(CCC(=O)OC)=C4C)C1(C)C3=CC=C(C(=O)OC)C1C(=O)OC (mixture of isomers) [Compound 40, 8-(1-Hexyloxyethyl)benzoporphyrin Derivative]
Tumor response (nonpalpable tumor), 1-2 d ([1]; 1.0 mg/kg i.v., light 3 h after injection, day 1-2): 6/6 | Tumor response (nonpalpable tumor), 7 d ([1]; 1.0 mg/kg i.v., light 3 h after injection, day 7): 3/6 | Tumor response (nonpalpable tumor), 30 d ([1]; 1.0 mg/kg i.v., light 3 h after injection, day 30): 3/6 | antitumor / photosensitizing activity ([1]; 1.0 mg/kg, light 3 h post i.v. injection where stated): active | in vivo activity versus vinyl or ring B isomer ([1]; 1.0 mg/kg, trans isomers compared): more active than the ring "B" modified isomer 45 | in vivo photosensitizing efficacy / antitumor activity compared with BPD ([1]; mice, compared with BPD (mixture of 21 and 22)): significantly more active than the industrially prepared benzoporphyrin derivative; also recorded: better photosensitizing efficacy than benzoporphyrin derivative monocarboxylic acid; also recorded: better anti-tumor activity than BPD-MA | skin phototoxicity compared with Photofrin and BPD ([3]; 1.0 mg/kg, 3 h post injection): reduced skin phototoxicity | skin phototoxicity compared with Photofrin and BPD ([3]; 5.0 mg/kg, 24 h post injection): reduced skin phototoxicity | skin phototoxicity ([3]; dose not given): reduced residual skin phototoxicity compared with Photofrin; also recorded: reduced skin phototoxicity compared with BPD-MA and Photofrin | Tumor response (nonpalpable tumor), 1-2 d ([4]; 5.0 mg/kg i.v., light 24 h after injection, day 1-2): 6/6 | Tumor response (nonpalpable tumor), 7 d ([4]; 5.0 mg/kg i.v., light 24 h after injection, day 7): 6/6 | Tumor response (nonpalpable tumor), 30 d ([4]; 5.0 mg/kg i.v., light 24 h after injection, day 30): 5/6 | tumorcidal / photosensitizing activity ([4]; 5.0 mg/kg, light 24 h post i.v. injection): excellent tumorcidal activity
